pIC50: −log10 of the molar value. Counter-ions that a name gives are not always drawn. Like-named read-outs stand apart in the source and are kept apart here.
Experiments:
[1] = system: Human coronary artery endothelial cells (EC); test: Endothelial cell (EC) antiproliferation assay; assay type: cell-based; settings: inhibition of proliferation, viable cell count ~68 hours after addition
Description: (§1) Human coronary artery smooth muscle cells (SMC) and endothelial cells (EC) were supplied by Cambrex Bio Science Walkersville, Inc. (Walkersville, MD). The smooth muscle cells were maintained in a basal medium, EBM (Cambrex Bio Science Walkersville, Inc), without phenol red and supplemented with 5% (v/v) fetal bovine serum (FBS), human recombinant epidermal growth factor (EGF), human recombinant fibroblast growth factor (FGF), bovine insulin, 50 μg/mL gentamicin sulfate, and 50 ng/mL amphotericin B (all obtained from Cambrex Bio Science Walkersville, Inc. as SMGM2 SingleQuots). The endothelial cells were grown in a modified EGM2-MV medium (Cambrex Bio Science Walkersville, Inc.), which had the same, phenol red-free, basal medium, EBM, as used in the smooth muscle cell medium, but were supplemented with 5% (v/v) fetal bovine serum (FBS), human recombinant epidermal growth factor (EGF), human recombinant fibroblast growth factor (FGF), vascular endothelial growth factor (VEGF), recombinant insulin-like growth factor-1 (IGF-1), ascorbic acid, 50 μg/mL gentamicin sulfate, and 50 ng/mL amphotericin B (all supplied by Cambrex Bio Science Walkersville, Inc. as EGM2-MV SingleQuots). All cells were incubated under humidified 95% air-5% CO2 at 37° C.
(§2) For the SMC/EC Antiproliferation Assay, the cells were seeded at 4×10^4 viable cells in 2 mL of the appropriate medium per well of a Corning tissue culture 24 well plate (Corning, N.Y.). Stock solutions of the test compounds were prepared just prior to addition to the cells by dissolving in DMSO at a concentration 1000 times the highest concentration to be assayed. This stock solution was diluted, as required, with DMSO to the required concentration. On the same day the cells were seeded, but after they had attached and spread out (about 3 hr), each test compound in varying concentrations (2 μL of the diluted stock solutions) was added to four replicate wells (n=4) for each concentration. Control cultures received 2 μL of DMSO per well (n=4). On the following morning, the cultures were examined microscopically and their condition, including evidence of cytotoxicity, recorded. ˜68 hours after the addition of the test compound, the cultures were examined microscopically and the viable cells counted with a hemacytometer following trypsinization with 0.25% trypsin-1 mM EDTA. Trypan Blue dye exclusion was used to discriminate between viable and dead cells. The results are presented as % of the control viable cell count (mean±SEM) and are used to determine the IC50 for the inhibition of proliferation of vascular smooth muscle and endothelial cells.

[2] = system: Human coronary artery smooth muscle cells (SMC); test: Vascular smooth muscle cell (SMC) antiproliferation assay; assay type: cell-based; settings: inhibition of proliferation, viable cell count ~68 hours after addition
Description: as §1, §2

[3] = Homo sapiens, Endothelial cell, EC strain 3033, read-out: EC Strain 3033, IC50
[4] = Homo sapiens, SMC strain 3033, read-out: SMC Strain 3033, IC50

## O=S(=O)(c1ccccc1)c1c(OCC(COc2no[n+]([O-])c2S(=O)(=O)c2ccccc2)Oc2no[n+]([O-])c2S(=O)(=O)c2ccccc2)no[n+]1[O-] [Example 4]
[1]; EC strain 3033, read-out: EC Strain 3033, IC50
  pIC50: 6.46
[2]; SMC strain 5286, read-out: SMC Strain 5286, IC50
  pIC50: 7.89
[2]; SMC strain 9557-1, read-out: SMC Strain 9557-1, IC50
  pIC50: 8.05

## O=S(=O)(c1ccccc1)c1c(OCCNCCOc2no[n+]([O-])c2S(=O)(=O)c2ccccc2)no[n+]1[O-] [Example 2b, Ethanamine, 2-[[5-oxido-4-(phenylsulfonyl)-1,2,5-oxadiazol-3-yl]oxy]-N-[2-[[5-oxido-4-(phenylsulfonyl)-1,2,5-oxadiazol-3-yl]oxy]ethyl]-, 2-hydroxy-1,2,3-propanetricarboxylate (1:1) (salt)]
[1]; [3]
  pIC50: 6.16
[2]; [4]
  pIC50: 7.15

## O=S(=O)(c1ccccc1)c1c(OCCN(CCOc2no[n+]([O-])c2S(=O)(=O)c2ccccc2)CCOc2no[n+]([O-])c2S(=O)(=O)c2ccccc2)no[n+]1[O-] [Example 1d, Ethanamine, 2-[[5-oxido-4-(phenylsulfonyl)-1,2,5-oxadiazol-3-yl]oxy]-N,N-bis[2-[[5-oxido-4-(phenylsulfonyl)-1,2,5-oxadiazol-3-yl]oxy]ethyl]-, 2-hydroxy-1,2,3-propanetricarboxylate]
[1]; [3]
  pIC50: 6.35
[1]; Homo sapiens, Endothelial cell, EC strain 5675-1, read-out: EC Strain 5675-1, IC50
  pIC50: 6.34
[2]; [4]
  pIC50: 8.22
[2]; Homo sapiens, SMC strain 5286, read-out: SMC Strain 5286, IC50
  pIC50: 7.77
[2]; Homo sapiens, SMC strain 9557-1, read-out: SMC Strain 9557-1, IC50
  pIC50: 8.10

## O=S(=O)(c1ccccc1)c1c(OCCOc2no[n+]([O-])c2S(=O)(=O)c2ccccc2)no[n+]1[O-] [Example 5]
other
  melting point: 187 to 189 °C
